Assay results reported in US20030211168A1, “Drug carrier pellet production process” (priority 2000, published 2003).
Where a name gives a salt, the structure may show the parent alone.

What was measured:
[1] = Solubility of active drug substances in water; type: physicochemical
[2] = Particle size of active drug substance; type: physicochemical; details: drug substance raw material

Row | SMILES | solubility [1] | Particle size [2]
1 | COc1ccc([C@@H]2Sc3ccccc3N(CCN(C)C)C(=O)[C@@H]2OC(C)=O)cc1 [Diltiazem hydrochloride] | > 100 mg/mL | –
2 | NS(=O)(=O)c1cc(C(=O)O)c(NCc2ccco2)cc1Cl [Furosemide] | – | <10 μm
